Active and inactive are the calls of the source. No cut-off for these calls is given here.
What was measured:
[1] = Aqueous stability of compound; assay type: physicochemical; conditions: buffer
[2] = test system: RAW264.7; assay: Antiinflammatory activity in mouse RAW264.7 cells assessed as inhibition of LPS-induced IL6 release at 5 to 10 uM preincubated for 1 hr followed by LPS stimulation and measured after 24 hrs by ELISA; assay type: functional, cell-based; conditions: dose 5-10 µM, time 25.0 hrs
[3] = test system: RAW264.7; assay: Antiinflammatory activity in mouse RAW264.7 cells assessed as inhibition of LPS-induced TNFalpha release at 5 to 10 uM preincubated for 1 hr followed by LPS stimulation and measured after 4 hrs by ELISA; assay type: functional, cell-based; conditions: dose 5-10 µM, time 5.0 hrs
[4] = test system: RAW264.7; assay: Cytotoxicity against mouse RAW264.7 cells assessed as reduction cell viability at 5 to 50 uM measured after 24 hrs by Celltiter-glo assay; assay type: cell-based; conditions: raw264.7, 24 h, dose 5-50 µM
[5] = target: T1, Nuclear factor NF-kappa-B p105 subunit (Homo sapiens) (UniProt P19838); assay: Inhibition of DNA binding activity of human NF-kappaB p50 at 200 uM measured after 1 hr by ELISA
T1 sequence (whole entry): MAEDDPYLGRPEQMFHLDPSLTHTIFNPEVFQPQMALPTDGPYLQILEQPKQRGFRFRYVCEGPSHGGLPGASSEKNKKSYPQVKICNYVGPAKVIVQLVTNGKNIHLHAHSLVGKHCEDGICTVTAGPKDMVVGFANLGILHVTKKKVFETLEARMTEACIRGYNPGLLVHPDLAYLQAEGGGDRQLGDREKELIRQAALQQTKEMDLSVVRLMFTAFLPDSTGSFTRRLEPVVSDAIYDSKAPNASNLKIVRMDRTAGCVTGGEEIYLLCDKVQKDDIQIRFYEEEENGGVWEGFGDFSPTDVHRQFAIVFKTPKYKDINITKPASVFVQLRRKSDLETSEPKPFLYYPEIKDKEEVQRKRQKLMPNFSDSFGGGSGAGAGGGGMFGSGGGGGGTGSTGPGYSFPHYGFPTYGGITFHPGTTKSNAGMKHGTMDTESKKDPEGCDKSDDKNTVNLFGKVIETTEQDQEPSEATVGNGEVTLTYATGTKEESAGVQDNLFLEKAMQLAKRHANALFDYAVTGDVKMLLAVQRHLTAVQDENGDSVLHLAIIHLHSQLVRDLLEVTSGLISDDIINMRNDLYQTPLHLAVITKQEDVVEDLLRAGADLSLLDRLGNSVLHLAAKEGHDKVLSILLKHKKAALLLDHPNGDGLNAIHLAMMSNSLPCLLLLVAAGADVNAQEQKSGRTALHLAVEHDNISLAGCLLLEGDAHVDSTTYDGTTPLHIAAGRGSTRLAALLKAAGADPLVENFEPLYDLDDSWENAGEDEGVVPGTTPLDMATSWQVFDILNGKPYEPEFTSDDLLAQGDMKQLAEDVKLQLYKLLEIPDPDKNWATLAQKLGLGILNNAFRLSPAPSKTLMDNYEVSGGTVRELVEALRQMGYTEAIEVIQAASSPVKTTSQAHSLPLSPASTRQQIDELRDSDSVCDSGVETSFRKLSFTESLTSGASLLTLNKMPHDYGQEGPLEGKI

[6] = test system: RAW-Blue; assay: Inhibition of LPS-induced NF-kappaB activity in mouse RAW-Blue cells assessed as reduction in SEAP reporter activity at 5 to 20 uM preincubated for 1 hr followed by LPS stimulation and measured after 8 to 24 hrs by SEAP reporter gene assay; assay type: cell-based; conditions: dose 5-20 µM, time 25.0 hrs
[7] = test system: RAW264.7; assay: Cytotoxicity against mouse RAW264.7 cells assessed as reduction cell viability at 5 uM measured after 24 hrs by Celltiter-glo assay; assay type: cell-based; conditions: raw264.7, 24 h
[8] = test system: RAW-Blue; assay: Inhibition of LPS-induced NF-kappaB activity in mouse RAW-Blue cells assessed as reduction in SEAP reporter activity at 5 to 20 uM preincubated for 1 hr followed by LPS stimulation and measured after 8 hrs by SEAP reporter gene assay; assay type: cell-based; conditions: dose 5-20 µM, time 9.0 hrs
[9] = test system: RAW-Blue; assay: Inhibition of LPS-induced NF-kappaB activity in mouse RAW-Blue cells assessed as reduction in SEAP reporter activity at 5 to 20 uM preincubated for 1 hr followed by LPS stimulation and measured after 24 hrs by SEAP reporter gene assay; assay type: cell-based; conditions: dose 5-20 µM, time 25.0 hrs
[10] = GSH reactivity in PBS assessed as isomerization measured up to 24 hrs by HPLC-MS analysis; assay type: ADME; conditions: buffer
[11] = GSH reactivity in PBS assessed as GSH adduct formation measured up to 8 hrs by HPLC-MS analysis; assay type: ADME; conditions: buffer
[12] = GSH reactivity in PBS assessed as GSH adduct formation by measuring half life by HPLC-MS analysis; assay type: ADME
[13] = test system: RAW-Blue; assay: Activation of NF-kappaB activity in mouse RAW-Blue cells assessed as increase in SEAP reporter activity at 5 to 20 uM measured after 24 hrs by SEAP reporter gene assay; assay type: cell-based; conditions: filed as activator, dose 5-20 µM
[14] = test system: RAW-Blue; assay: Activation of NF-kappaB activity in mouse RAW-Blue cells assessed as increase in SEAP reporter activity at 30 uM measured after 24 hrs in presence of p38 inhibitor SB203580 by SEAP reporter gene assay; assay type: cell-based
[15] = GSH reactivity assessed as GSH adduct formation by measuring reduction in intracellular GSH level at 20 uM measured after 2 hrs by cell-based monochlorobimane fluorometric method; assay type: ADME; design: scale not given: the % may be the effect or the level left

Compound	Stabilty [1]	inhibition [2]	inhibition [3]	other results
C[C@H]1CC[C@@H]2[C@](C)(CO)[C@H](O)CC[C@@]2(C)[C@@H]1CC[C@@H]1C(=O)OC[C@H]1O	Stable	inactive	inactive	–
C=C1CC[C@@H]2[C@](C)(CO)[C@H](O)CC[C@@]2(C)[C@@H]1C/C=C1\C[C@@H](OC)OC1=O	Stable	inactive	–	–
C=C1CC[C@@H]2[C@](C)(CO)[C@H](O)CC[C@@]2(C)[C@@H]1C/C=C1\C(=O)Nc2ccc(F)cc21	Stable	inactive	–	–
C=C1CC[C@@H]2[C@](C)(CO)[C@H](O)CC[C@@]2(C)[C@@H]1/C=C/C1=CCOC1=O	Stable	inactive	inactive	–
C=C1CC[C@@H]2[C@](C)(CO)[C@H](O)CC[C@@]2(C)[C@@H]1CC=C(C#N)C#N	Unstable	–	–	–
C=C1CC[C@@H]2[C@](C)(CO)[C@H](O)CC[C@@]2(C)[C@@H]1C/C=C1\NC(=O)NC1=O	Stable	inactive	–	Activity [4]: Non-Toxic
C=C1CC[C@@H]2[C@](C)(CO)[C@H](O)CC[C@@]2(C)[C@@H]1C/C=C/C(C)O (some centres undefined)	–	–	–	inhibition [5]: inactive
C=C1CC[C@@H]2[C@](C)(CO)[C@H](O)CC[C@@]2(C)[C@@H]1C/C=C1\C(=O)OC[C@H]1O	Stable	–	inactive	inhibition [6]: inactive
C=C1CC[C@@H]2[C@](C)(CO)[C@H](O)CC[C@@]2(C)[C@@H]1C/C=C/C(=O)c1ccccc1	Stable	Active	Active	Activity [7]: Toxic; inhibition [8]: Active; inhibition [9]: Active; Drug metabolism [10]: Metabolite_Notdetected; K [11]: 6.036e-05 M⁻¹ s⁻¹; t1/2 [12]: 2.12 h
C=C1CC[C@@H]2[C@](C)(CO)[C@H](O)CC[C@@]2(C)[C@@H]1C/C=C1/C(=O)Nc2ccc(F)cc21	Stable	inactive	–	–
C=C1CC[C@@H]2[C@](C)(CO)[C@H](O)CC[C@@]2(C)[C@@H]1C/C=C/C#N	Stable	inactive	inactive	–
C=C1CC[C@@H]2[C@](C)(CO)[C@H](O)CC[C@@]2(C)[C@@H]1C/C=C1\C=COC1=O	Stable	Active	Active	inhibition [8]: Active; inhibition [9]: inactive; Activity [13]: Active; Activity [14]: inactive; K [11]: 0.003539 M⁻¹ s⁻¹; t1/2 [12]: 0.05 h; Activity [15]: > 70%
C=C1CC[C@@H]2[C@](C)(CO)[C@H](O)CC[C@@]2(C)[C@@H]1C/C=C1\C(=O)Nc2ccccc21	Stable	inactive	–	–
